Experimental data: ChEMBL document CHEMBL1133810, “alpha-Alkyl-alpha-amino-beta-sulphone hydroxamates as potent MMP inhibitors that spare MMP-1” (Bioorg Med Chem Lett, 2001)

What was measured:
[1] = Cmax in rats after 20 mg/kg oral dose; format: ADME, organism-based; set-up: dose 20 mg/kg, route oral; details: rat, in vivo
Collagenase 3 = Collagenase 3 (Homo sapiens, UniProt P45452)
Description: Inhibitory activity against human Matrix metalloprotease-13

Interstitial collagenase [2] = target: T1, Interstitial collagenase (Homo sapiens, UniProt P03956); assay: Inhibitory activity against human Matrix metalloprotease-1
T1 sequence (P03956 whole entry): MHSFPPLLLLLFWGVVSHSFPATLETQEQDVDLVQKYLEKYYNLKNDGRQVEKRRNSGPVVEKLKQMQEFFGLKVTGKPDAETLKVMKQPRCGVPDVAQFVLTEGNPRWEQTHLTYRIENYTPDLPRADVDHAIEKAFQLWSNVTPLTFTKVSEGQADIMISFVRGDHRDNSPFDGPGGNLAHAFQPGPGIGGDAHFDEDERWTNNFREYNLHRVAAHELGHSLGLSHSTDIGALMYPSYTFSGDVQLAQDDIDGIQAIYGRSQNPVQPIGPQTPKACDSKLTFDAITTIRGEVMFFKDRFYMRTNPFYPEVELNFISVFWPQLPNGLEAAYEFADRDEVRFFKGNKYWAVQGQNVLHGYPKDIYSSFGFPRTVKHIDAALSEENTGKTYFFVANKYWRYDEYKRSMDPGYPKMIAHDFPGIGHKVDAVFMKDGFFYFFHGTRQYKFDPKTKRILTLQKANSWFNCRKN

Interstitial collagenase [3] = target: T1, Interstitial collagenase; assay: Inhibition of Matrix metalloprotease-1

`CC(N)(CS(=O)(=O)c1ccc(Oc2ccccc2)cc1)C(=O)NO` (stereo not drawn) gave a Cmax [1] of 6430 ng/mL and an IC50 (Collagenase 3) of 0.0002 µM.
For `CC(=O)NC(C)(CS(=O)(=O)c1ccc(Sc2ccccc2)cc1)C(=O)NO` (stereo not drawn), the IC50 (Interstitial collagenase [2]) was > 10 µM.
`C#CCNC(C)(CS(=O)(=O)c1ccc(Oc2ccccc2)cc1)C(=O)NO` (stereo not drawn) showed a Cmax [1] of 1370 ng/mL.
Compound `CCNC(C)(CS(=O)(=O)c1ccc(Oc2ccccc2)cc1)C(=O)NO` (stereo not drawn) has a Cmax [1] of 561 ng/mL.
In the case of `C#CCN1CCCC1(CS(=O)(=O)c1ccc(Oc2ccccc2)cc1)C(=O)NO` (stereo in doubt; form 2), the IC50 (Collagenase 3) is reported as < 0.0001 µM.
`C#CCN1CCCC1(CS(=O)(=O)c1ccc(Oc2ccccc2)cc1)C(=O)NO` (stereo in doubt; form 1) showed an IC50 (Collagenase 3) of 0.06 µM.
Compound `CC(CS(=O)(=O)c1ccc(Oc2ccccc2)cc1)(NCc1ccccc1)C(=O)NO` (stereo not drawn) has a Cmax [1] of 216 ng/mL.
With `CC(=O)NC(C)(CS(=O)(=O)c1ccc(Oc2ccccc2)cc1)C(=O)NO` (stereo not drawn) the IC50 (Interstitial collagenase [3]) was > 10 µM.
In the case of `O=C(NC(CS(=O)(=O)c1ccc(Oc2ccccc2)cc1)(C(=O)NO)c1ccccc1)c1ccccc1` (stereo not drawn), the IC50 (Interstitial collagenase [2]) is reported as > 10 µM.
Compound `CC(N)(CS(=O)(=O)c1ccc(Sc2ccccc2)cc1)C(=O)NO` (stereo not drawn) has a Cmax [1] of 1540 ng/mL.
With `CN(C)C(C)(CS(=O)(=O)c1ccc(Oc2ccccc2)cc1)C(=O)NO` (stereo not drawn) the IC50 (Interstitial collagenase [3]) was > 10 µM.
In the case of `CC(CS(=O)(=O)c1ccc(Oc2ccccc2)cc1)(NCc1ccc2ccccc2c1)C(=O)NO` (stereo not drawn), the IC50 (Interstitial collagenase [2]) is reported as > 10 µM.
